US20210188930A1 (priority 2018, published 2021)
“Also recorded” adds a separate entry of the source. Where two headings read alike, the source gives them in different places.

Legend:
[1] = biological target: T1, p53-R282W (Homo sapiens, UniProt P04637, R282W); type: cell-based; details: p53-R282W on PUMA promoter, agents 24 hr (FIG. 37 and FIG. 41)
T1 construct: pcDNA3.1 expressing human full length p53 was gift from Prof; Xin Lu; expressed in transfected cells; host or cells: H1299 (p53-null)

[2] = test system: NCI60 cell lines; type: cell-based, human; details: Struc. / WT / Null / Others, G150 retrieved by CellMiner
[3] = test system: wtp53; assay: Real time qPCR of p53 targets, HCT116 cells; type: cell-based, human; details: HCT116 expressing wtp53
Description: Total RNA was isolated from cells using Total RNA Purification Kit (B518651, Sangon Biotech). 1 μg total RNA was reverse-transcribed using the GoScript®™ Reverse Transciptase System (A5001, Promega) following manufacturer's protocol. PCR was performed in triplicate using SYBR green mix (Applied Biosystems), and a ViiA™ 7 Real-Time PCR System (Applied Biosystems) under the following conditions: 10 min at 95° C. followed by 40 cycles of 95° C. for 15 s and 60° C. for 1 min. Specificity of the PCR product was checked for each primer set and samples from the melting curve analysis. Expression levels of targeted genes were normalized relative to levels of β-actin adopting comparative Ct method.

[4] = biological target: T2, p53-R172H (Mus musculus, UniProt P02340, R172H); type: cell-based
T2 construct: endogenous in cells; host or cells: mouse embryonic fibroblasts, Trp53-R172H/R172H
T2 sequence (P02340 whole entry R172H): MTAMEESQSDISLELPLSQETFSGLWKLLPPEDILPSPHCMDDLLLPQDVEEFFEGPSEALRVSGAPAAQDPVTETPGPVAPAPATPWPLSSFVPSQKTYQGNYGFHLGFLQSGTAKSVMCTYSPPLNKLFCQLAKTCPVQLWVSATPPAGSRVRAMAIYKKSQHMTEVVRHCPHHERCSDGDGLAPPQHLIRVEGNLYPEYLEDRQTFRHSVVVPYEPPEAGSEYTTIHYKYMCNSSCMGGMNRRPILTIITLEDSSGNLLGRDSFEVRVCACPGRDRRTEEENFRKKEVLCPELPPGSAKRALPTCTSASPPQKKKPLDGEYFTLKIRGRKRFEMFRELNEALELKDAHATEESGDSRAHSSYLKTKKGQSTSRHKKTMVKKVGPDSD

Row | Compound | enhancement of p53 transcriptional activity in luciferase assay [1] | further results
1 | C/C(=N\NC(=S)N1CCC1)c1ccccn1 [NSC319726] | 1.5 times | selectivity among NCI60 cell lines by p53 status (G150), in words [2]: none of the reported compounds tested, including PRIMA-1 and NSC319726 survived the 4C screening; also recorded: No significant association
2 | COc1ccc(C2=N[C@@H](c3ccc(Cl)cc3)[C@@H](c3ccc(Cl)cc3)N2C(=O)N2CCNC(=O)C2)c(OC(C)C)c1 [Nutlin3] |  | mRNA levels of p53 targets, in words [3]: significantly enhanced PUMA, PIG3, CDKN1A and MDM2 mRNA levels
3 | O=C1C2CCN(CC2)C1(CO)CO [PRIMA-1] | negligible | selectivity among NCI60 cell lines by p53 status (G150), in words [2]: none of the reported compounds tested, including PRIMA-1 and NSC319726 survived the 4C screening; selectivity among NCI60 cell lines by p53 status (G150), in words ([2]; listed as NSC281668): No significant association
4 | CCn1c2ccccc2c2cc(CNC)ccc21 [PhiKan083] | negligible | 
5 | MIRA-1 | negligible | 
6 | Cc1c2ccncc2c(C)c2c1[nH]c1ccccc12 [Ellipticine] | 3.3 times | 
7 | potassium arsenite [NSC3060] |  | PAb246 epitope (folded mouse p53-R172H), in words [4]: measurable increase of PAb1620 epitopes and PAb246 (for mouse p53-R172H) epitopes
8 | COc1ccc(/C=C/c2nc(NCCCN(C)C)c3ccccc3n2)cc1 [CP31398] | 1.5 times | 
9 | OCc1ccc(-c2ccc(-c3ccc(CO)s3)o2)s1 [RITA] | negligible | 
10 | C=Cc1nc2ccccc2c(=O)[nH]1 [STIMA-1] | negligible | 
